Measured values: patent US20060165821A1, “Composition comprising scutellaria baicalensis and their uses thereof” (priority 2002, published 2006)

Assays:
[1] = Paw edema induced by Freund's complete adjuvant in rats; assay type: in vivo, Wistar rats; conditions: X ± SD, n = 6, oral gavage once per day
Description: The anti-arthritic activity of Scutellaria baicalensis formula was confirmed in animal study. Eight week-old male Wistar rats were received intradermal injections of 0.1 ml Freund's complete adjuvant (FCA, 7.5 mg/ml) to the paw of the right hindfood. At 14 days, paw edema was induced and rats were randomized into three groups (n=6) including control group, Scutellaria baicalensis formula group (30 mg/kg of Scutellaria baicalensis, 10 mg/kg of Glucosamine and 8 mg/kg of Chondroitin) and indomethacin group (12.5 mg/kg) which serves as a positive control. The treatment groups were given Scutellaria baicalensis formula or indomethacin by oral gavage once per day for a duration of 10 days. The diameters of paw were measured at 16, 20 and 24 days.

IL-6 = IL-6 in serum of rats with adjuvant arthritis (ELISA); assay type: in vivo; conditions: end of experiment, X ± SD, n = 6
Description: (§1) Osteoarthritis is characterized by articular cartilage degradation and hypertrophic joint changes. Pro-inflammatory cytokines (IL-1, IL-6, TNF-α) are considered to play important roles in the initiation and development of osteoarthritis (Inoue et al. British Journal of Pharmacology 136:287-295 (2002)). Prostaglandin (PG) E2 has catabolic effects on the articular cartilage in OA (Futani et al J Immunother 2002 1;25(0):S61-S64). Therefore, we measured IL-6 and PGE2 in rats' blood with adjuvant-induced arthritis treated with Scutellaria baicalensis formula using ELISA assay. At the end of the experiment in Example 4.1, IL-6 in serum and PGE2 in articular fluid were assessed.

PGE2 = PGE2 in articular fluid of rats with adjuvant arthritis (ELISA); assay type: in vivo; conditions: end of experiment, X ± SD, n = 6
Description: as §1

SCC-25 cells = test: Previously determined IC50 of celecoxib; assay type: cell-based; conditions: Homo sapiens, quantity inhibited not stated
Description: Benzo[a]pyrene (BaP), one of the compounds released from smoking, is a prototypical carcinogen. It is a polycyclic aromatic hydrocarbon (PAH) compound and is found in high quantity (20-40 ng) in each cigarette. BaP is metabolized and activated to become the ultimate carcinogenic metabolite [(+)-anti-7b,8a-dihydroxy-9a,10a-epoxy-7,8,9,10-tetrahydorbenzo[a]pyrene], also known as BPDE. […] We examined the counter-stimulatory effect of Scutellaria baicalensis on BaP-induced COX-2 activity. After the treating SCC-25 cells with BaP for 6 hours, the supernatants were removed and the cells were washed with PBS. […] This situation resembles the chemoprevention in the former smokers.

[2] = mice or rats; 500 mg/kg oral, 3000 mg/kg IM, 1500 mk/kg IV; cited from earlier work
[3] = following an oral dose; cited from earlier work

## COc1ccc2c(c1)c(CC(=O)O)c(C)n2C(=O)c1ccc(Cl)cc1 [Indomethacin]
[1]; 16 d
  changes of paw edema: 0.929 ± 0.214
[1]; 20 d
  changes of paw edema: 0.771 ± 0.160
[1]; 24 d
  changes of paw edema: 0.400 ± 0.245
IL-6
  IL-6: 6.0 ± 3.1 pg/mL
PGE2
  PGE2: 6.00 ± 3.1 pg/mL

## Cc1ccc(-c2cc(C(F)(F)F)nn2-c2ccc(S(N)(=O)=O)cc2)cc1 [celecoxib]
SCC-25 cells
  IC50: 25 µM

## N[C@H]1C(O)O[C@H](CO)[C@@H](O)[C@@H]1O.O=S(=O)(O)O (some centres unmarked) [glucosamine sulfate]
[2]
  mortality: No mortality

## Chondroitin sulfate
[3]
  tolerability / signs or symptoms of toxicity: well tolerated
